Like-named read-outs stand apart in the source and are kept apart here.

The target of series [1] is T1, DAT (Oryctolagus cuniculus, UniProt Z9V7K4Q734). In words: [3H]WIN 35,428 binding assay to rabbit striatal membranes. The following applies: mean ± SE of three or more experiments, tested as hydrochloride salts. The procedure:
(§1) Membranes used in DAT and SERT binding assays were prepared from frozen rabbit striatum and frontal cortex as previously described.[29]
DAT binding assays were performed using 2 nM [^3H]WIN 35,428 (specificity activity, 84.5 Ci mmol^–1; PerkinElmer Life Science) as previously described by Nencetti et al.[29]

In series [2] the target is T2, NET (Oryctolagus cuniculus, UniProt G1TDF9).
T2 construct: tissue Charles River Laboratories, Inc. (animals); host or cells: cerebral cortex of New Zealand White rabbit
T2 sequence (G1TDF9 1-617): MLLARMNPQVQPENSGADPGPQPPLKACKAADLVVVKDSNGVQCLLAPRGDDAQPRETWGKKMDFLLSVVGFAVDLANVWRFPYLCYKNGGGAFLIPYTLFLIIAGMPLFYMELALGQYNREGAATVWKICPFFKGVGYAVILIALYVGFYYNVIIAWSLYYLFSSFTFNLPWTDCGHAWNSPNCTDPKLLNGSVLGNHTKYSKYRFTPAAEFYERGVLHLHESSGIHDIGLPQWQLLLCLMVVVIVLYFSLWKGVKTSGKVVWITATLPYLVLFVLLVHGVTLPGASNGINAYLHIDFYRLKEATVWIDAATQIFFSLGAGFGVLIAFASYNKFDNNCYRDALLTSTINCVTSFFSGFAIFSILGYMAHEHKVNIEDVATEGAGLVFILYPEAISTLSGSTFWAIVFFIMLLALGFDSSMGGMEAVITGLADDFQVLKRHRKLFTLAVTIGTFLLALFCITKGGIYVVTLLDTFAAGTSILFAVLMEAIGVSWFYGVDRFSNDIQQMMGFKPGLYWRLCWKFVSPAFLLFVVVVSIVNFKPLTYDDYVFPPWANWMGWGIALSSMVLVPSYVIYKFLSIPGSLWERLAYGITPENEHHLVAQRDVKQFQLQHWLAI
In words: [3H]nisoxetine binding assay to rabbit cortical membranes. The procedure:
This washing procedure was repeated twice. The resulting pellet was immediately used in the binding assay or frozen at −80 °C until the time of the assay.
Incubation was carried out at 4 °C for 4 h.

In series [3] the target is T3, SERT (Oryctolagus cuniculus, UniProt A0A5F9CLU6). In words: [3H]paroxetine binding assay to rabbit cortical membranes. As to the method:
as §1

In series [4] the target is T1, DAT. The following applies: rabbit striatal membranes; tested as hydrochloride salts; read-out: [3H]-WIN 35,428, Ki; cited from earlier work.
Series [5] has as its target T3, SERT. The following applies: rabbit cortical membranes; tested as hydrochloride salts; cited from earlier work.
Series [6] has as its target T4, SERT (Homo sapiens, UniProt P31645). Nature of the series: [3H]5-HT uptake to human platelets.
Series [7] deals with T4, SERT. Nature of the series: [3H]paroxetine binding assay to human platelet membranes.
In series [8] the target is T2, NET. The following applies: read-out: [3H]nisoxetine, Ki; rabbit cortical membranes; cited from earlier work.
Series [9] has as its target DAT. The following applies: binding affinity for human transporters; cited from earlier work.
For series [10], the target named is NET. The following applies: cited from earlier work.
The target of series [11] is NET. The following applies: binding affinity for rat transporter; cited from earlier work.
The target in series [12] is T4, SERT. The following applies: cited from earlier work.
In series [13] the target is SERT. The following applies: binding affinity for rat transporter; cited from earlier work.
The mark [14] stands for this setting: rabbit cortical membranes, tested as hydrochloride salts.
The mark [15] stands for this setting: binding affinity for human transporters.

T4 sequence (P31645 whole entry): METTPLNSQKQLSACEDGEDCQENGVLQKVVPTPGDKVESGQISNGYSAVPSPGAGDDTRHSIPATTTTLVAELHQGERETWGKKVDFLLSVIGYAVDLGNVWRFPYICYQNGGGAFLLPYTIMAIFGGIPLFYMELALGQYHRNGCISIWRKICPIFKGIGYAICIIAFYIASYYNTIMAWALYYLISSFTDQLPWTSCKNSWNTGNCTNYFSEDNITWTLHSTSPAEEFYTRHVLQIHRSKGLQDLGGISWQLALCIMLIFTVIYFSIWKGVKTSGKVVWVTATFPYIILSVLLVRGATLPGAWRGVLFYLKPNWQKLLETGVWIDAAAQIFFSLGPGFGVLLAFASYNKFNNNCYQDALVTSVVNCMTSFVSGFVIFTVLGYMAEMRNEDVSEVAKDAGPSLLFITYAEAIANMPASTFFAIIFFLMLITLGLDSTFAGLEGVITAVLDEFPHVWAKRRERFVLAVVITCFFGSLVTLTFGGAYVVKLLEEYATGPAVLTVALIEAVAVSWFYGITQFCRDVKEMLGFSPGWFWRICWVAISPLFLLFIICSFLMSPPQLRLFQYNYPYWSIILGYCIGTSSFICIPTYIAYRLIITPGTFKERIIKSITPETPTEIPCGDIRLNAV
T1 sequence (Z9V7K4Q734 1-627): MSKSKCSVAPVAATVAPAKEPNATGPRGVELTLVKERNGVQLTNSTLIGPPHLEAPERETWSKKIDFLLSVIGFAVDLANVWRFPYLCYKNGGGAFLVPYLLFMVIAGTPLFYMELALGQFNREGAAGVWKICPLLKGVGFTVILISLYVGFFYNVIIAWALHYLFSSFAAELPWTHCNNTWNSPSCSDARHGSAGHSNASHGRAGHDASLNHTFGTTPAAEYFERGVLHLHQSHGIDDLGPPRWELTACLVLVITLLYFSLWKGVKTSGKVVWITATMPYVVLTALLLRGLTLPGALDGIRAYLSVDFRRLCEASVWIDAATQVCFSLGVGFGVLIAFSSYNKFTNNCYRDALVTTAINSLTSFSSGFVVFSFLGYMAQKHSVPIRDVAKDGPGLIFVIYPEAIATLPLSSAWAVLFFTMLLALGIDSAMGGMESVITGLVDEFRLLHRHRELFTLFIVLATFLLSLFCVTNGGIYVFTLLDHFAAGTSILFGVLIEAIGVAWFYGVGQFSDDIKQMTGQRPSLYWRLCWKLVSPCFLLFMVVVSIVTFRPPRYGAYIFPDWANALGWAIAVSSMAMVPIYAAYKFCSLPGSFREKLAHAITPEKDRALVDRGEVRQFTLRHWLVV
T3 sequence (A0A5F9CLU6 1-628): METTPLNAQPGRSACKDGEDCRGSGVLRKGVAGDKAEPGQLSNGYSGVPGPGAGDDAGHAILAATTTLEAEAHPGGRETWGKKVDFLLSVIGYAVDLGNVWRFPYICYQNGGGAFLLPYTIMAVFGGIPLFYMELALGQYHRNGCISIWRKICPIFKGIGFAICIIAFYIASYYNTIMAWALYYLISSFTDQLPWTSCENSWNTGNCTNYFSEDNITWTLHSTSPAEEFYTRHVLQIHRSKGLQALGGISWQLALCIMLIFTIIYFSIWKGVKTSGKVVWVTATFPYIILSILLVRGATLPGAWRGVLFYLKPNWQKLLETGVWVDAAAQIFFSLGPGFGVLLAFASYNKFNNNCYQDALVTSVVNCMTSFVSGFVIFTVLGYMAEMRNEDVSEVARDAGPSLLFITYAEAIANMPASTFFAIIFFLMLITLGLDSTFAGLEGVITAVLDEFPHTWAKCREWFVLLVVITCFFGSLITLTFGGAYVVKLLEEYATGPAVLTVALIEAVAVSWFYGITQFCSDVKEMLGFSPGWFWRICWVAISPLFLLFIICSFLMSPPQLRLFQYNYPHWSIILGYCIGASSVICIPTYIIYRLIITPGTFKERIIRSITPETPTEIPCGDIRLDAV

The term Ki denotes the dissociation constant of the complex between target and ligand, obtained from inhibition or displacement. As usually defined, the melting point is the temperature of the solid-liquid transition. Regarding `Cl.Fc1ccc(COC2(c3ccc(F)cc3)CCNCC2)cc1` [20a, 4-((4-Fluorobenzyl)oxy)-4-(4-fluorophenyl)piperidine Hydrochloride], the melting point fell in the range of 158 to 159 °C. In addition, on DAT [1], the Ki was over 100000 nM. The Ki on NET [2] (setting [14]) was found to be 520 nM.

In turn, `Cl.Fc1ccc(C2(OCc3ccccc3F)CCNCC2)cc1` [20c, 4-((2-Fluorobenzyl)oxy)-4-(4-fluorophenyl)piperidine Hydrochloride] registered a melting point of 202 °C. For the same molecule, at DAT [1], the Ki was over 100000 nM. In addition, the Ki at NET [2] (setting [14]) turned out to be 400 nM.

One may read the IC50 as the concentration needed to halve the response being measured. Consider `Cl.Fc1ccc(C2(OCc3ccc4c(c3)OCO4)CCNCC2)cc1` [20d, 4-(Benzo[D][1,3]dioxol-5-ylmethoxy)-4-(4-fluorophenyl)piperidine Hydrochloride], for which the Ki was 1740 nM on NET [2] (setting [14]), over 100000 nM at DAT [4], 1.75 nM on SERT [6] and 1.71 ± 0.15 nM at SERT [7]. The “potency as inhibitor of [3H]paroxetine binding relative to unlabeled paroxetine” value on SERT [3] is given as about 10 fold. Besides, the “[3H]paroxetine, Ki” value on SERT [5] is “picomolar range”. At SERT [6], this molecule displayed a concentration for half-maximal inhibition (IC50) of 2.64 ± 0.3 nM.

With `Cl.Fc1ccc(COC2(c3ccc(C(F)(F)F)cc3)CCNCC2)cc1` [21a, 4-((4-Fluorobenzyl)oxy)-4-(4-(trifluoromethyl)phenyl)piperidine Hydrochloride], the melting point is 261 °C (dec.). In addition, the Ki at DAT [1] was over 100000 nM. This molecule also had a Ki on NET [2] of over 10000 nM.

As for `Cl.FC(F)(F)c1ccc(COC2(c3ccc(C(F)(F)F)cc3)CCNCC2)cc1` [21b, 4-((4-(Trifluoromethyl)benzyl)oxy)-4-(4-(trifluoromethyl)phenyl)piperidine Hydrochloride], the melting point lay in the range of 189 to 190 °C. Further, the Ki at NET [2] (setting [14]) was over 10000 nM. Moreover, the Ki at DAT [4] is over 100000 nM. Moreover, the “[3H]paroxetine, Ki” value on SERT [5] is on record as “picomolar range”. At SERT [6], this molecule showed an IC50 of 4.2 ± 0.4 nM and a Ki of 2.77 nM. In addition, the Ki at SERT [7] came to 5.6 ± 0.52 nM.

Consider `Cl.Fc1ccccc1COC1(c2ccc(C(F)(F)F)cc2)CCNCC1` [21c, 4-((2-Fluorobenzyl)oxy)-4-(4-(trifluoromethyl)phenyl)piperidine Hydrochloride], for which the melting point is 210 °C (dec.). The Ki on DAT [1] was 11100 nM. In addition, the Ki at NET [2] (setting [14]) turned out to be 2070 nM.

Turning to `Cl.FC(F)(F)c1ccc(C2(OCc3ccc4c(c3)OCO4)CCNCC2)cc1` [21d, 4-(Benzo[d][1,3]dioxol-5-ylmethoxy)-4-(4-(trifluoromethyl)phenyl)piperidine Hydrochloride], the Ki on NET [2] (setting [14]) was 2450 nM; at DAT [4], 11200 nM; at SERT [6], 3.26 nM; on SERT [7], 8.72 ± 0.93 nM. Moreover, the “[3H]paroxetine, Ki” value at SERT [5] is “picomolar range”. Half-maximal inhibition at SERT [6] (IC50) was put at 4.9 ± 0.5 nM.

For the molecule `Fc1ccc([C@@H]2CCNC[C@H]2COc2ccc3c(c2)OCO3)cc1` [compound 1, paroxetine], the Ki at NET [8] is 80 ± 1 nM.

Take `COc1ccc(OC[C@H]2CN(C)CC[C@@H]2c2ccccc2)cc1` [compound 4, femoxetine]: the “DAT pKi exp” value at DAT [9] is 5.7. Also, the “NET pKi exp” value on NET [10] (setting [15]) is on record as 6.12.

As to `CNCC[C@@H](Oc1ccccc1C)c1ccccc1` [compound 6, atomoxetine], on DAT [9], the “DAT pKi exp” value is reported as 5.8.

Turning to `CNCCC(Oc1ccccc1OC)c1ccccc1` (stereo not drawn) [compound 8, nisoxetine], the “NET pKi exp” value on NET [11] is 9.34.

On to `COC(=O)[C@H]1[C@@H](c2ccc(Cl)cc2)C[C@@H]2CC[C@H]1N2C` [compound 9, RTI-31], for which the “DAT pKi exp” value at DAT [9] is on record as 8.57. Further, the “NET pKi exp” value at NET [10] is on record as 7.4.

On to `COC(=O)[C@H]1[C@@H](c2ccc(I)cc2)C[C@@H]2CC[C@H]1N2C` [compound 10, RTI-55], for which the “DAT pKi exp” value on DAT [9] was 8.41. The “NET pKi exp” value at NET [10] is recorded as 7.7. Further, at SERT [12], the “SERT pKi exp” value is given as 8.4.

As to `COCCCC/C(=N\OCCN)c1ccc(C(F)(F)F)cc1` [compound 11, fluvoxamine], the “DAT pKi exp” value at DAT [9] is 5.03.

`c1ccc(CCCN2CCN(CCOC(c3ccccc3)c3ccccc3)CC2)cc1` [compound 13, GBR-12935]: the “NET pKi exp” value at NET [10] (setting [15]) is reported as 6.2.

As to `c1ccc2c(CCC3CCNCC3)c[nH]c2c1` [compound 14, indalpine], at DAT [9], the “DAT pKi exp” value was 6. Also, the “NET pKi exp” value at NET [10] (setting [15]) was 6.29. At SERT [12] (setting [15]), the “SERT pKi exp” value is 8.76.

For `CCOc1ccccc1OCC1CNCCO1` (stereo not drawn) [compound 16, viloxazine], the “DAT pKi exp” value at DAT [9] is 5. The “NET pKi exp” value at NET [10] is reported as 6.81.

For the molecule `CN1[C@H]2CC[C@@H]1[C@@H](C(=O)N1CCCC1)[C@@H](c1ccc(I)cc1)C2` [compound 17, RTI-229], at NET [10] (setting [15]), the “NET pKi exp” value was 6.22. In addition, at SERT [12], the “SERT pKi exp” value was 6.8.

Regarding `CN(C)C/C=C(/c1ccc(Br)cc1)c1cccnc1` [compound 18, zimelidine], the “DAT pKi exp” value on DAT [9] is on record as 4.93.

On to `CN1C2CCC1C(C(=O)Oc1ccccc1)C(c1ccc(Cl)cc1)C2` (stereo not drawn) [compound 19, RTI-113], for which the “NET pKi exp” value at NET [11] is recorded as 5.75. The “SERT pKi exp” value on SERT [13] is 6.67.

Take `Cl.Fc1ccc(C2(OCc3ccc(C(F)(F)F)cc3)CCNCC2)cc1` [compound 20b, 4-(4-Fluorophenyl)-4-((4-(trifluoromethyl)benzyl)oxy)piperidine Hydrochloride]: the melting point was in the range of 184 to 185 °C. Moreover, the Ki at NET [2] (setting [14]) stood at 10000 nM. Also, the “potency as inhibitor of [3H]paroxetine binding relative to unlabeled paroxetine” value at SERT [3] is on record as about 10 fold. For the same molecule, at DAT [4], the Ki was over 100000 nM. For the same molecule, at SERT [5], the “[3H]paroxetine, Ki” value is “picomolar range”. On SERT [6], this molecule had an IC50 of 0.13 ± 0.01 nM and a Ki of 0.08 nM. The “type of inhibition of [3H]5-HT uptake” value on SERT [6] (human platelets, Lineweaver-Burk plot, Vmax unchanged, Km changed) is reported as “competitive”. In addition, the Ki at SERT [7] was determined as 0.17 ± 0.02 nM.
